The compounds below were run against T1, human subtype 5 somatostatin receptor (Homo sapiens, UniProt P35346) (assay: Binding of 125-I-labeled 11-Tyr somatostatin-14 tracer to membranes of CHO cells expressing SSTR5). Details: CHO cell membranes, Ki calculated from IC50 by Cheng-Prussoff equation.
T1 construct: host or cells: CHO cell line, stably transfected; membranes
Protocol: A CHO cell line stably transfected with a plasmid encoding the human subtype 5 somatostatin receptor (GenBank accession number D16827) was obtained from Euroscreen. Cells were cultured and used for binding and functional assays.
Membranes of these cells were prepared by sonication in the presence of protease inhibitors and subsequent fractionating centrifugation. The protein concentration in the membrane preparation was determined using a commercial kit (BCA kit, Pierce, USA). Membranes were stored at −80° C. until use. After thawing, membranes were diluted in assay buffer (50 mM TRIS-HCl at pH 7.4, 5 mM MgCl2 and 0.20% BSA (bovine serum albumine)) and subjected to dounce homogenization.
For binding studies, 0.1 ml membrane suspension, corresponding to app. 6×10^−15 mol receptor, was incubated for 1 hour at room temperature with 0.05 nM ^125-I-labeled tracer (11-Tyr somatostatin-14, Perkin-Elmer) and either test compounds in varying concentrations or, for the determination of non-specific binding, 0.001 mM non-labeled somatostatin-14 (Sigma-Aldrich, Buchs, Switzerland). The incubation was stopped by filtration through GF/B glassfiber filters (Unifilter, Perkin-Elmer) and washing with ice-cold wash buffer (50 mM Tris-HCl at pH 7.4). The bound radioactivity was measured after application of a scintillation cocktail (Microscint 40, Perkin-Elmer) and expressed as disintegrations per minute (dpm).
The receptor concentration was determined in a prior saturation experiment where a fixed, arbitrary amount of membranes was incubated with a concentration range of radio-labeled tracer. This allows estimating the total number of specific binding sites per amount of protein (i.e. Bmax), typically between 1 and 5 pmol/mg.
The concentration of the test compound required to result in half maximal inhibition of binding of the radio-labeled tracer (IC50) was estimated from a concentration-versus-dpm graph. The binding affinity (Ki) was calculated from the IC50 by applying the Cheng-Prussoff equation for single binding sites.

T1 sequence (P35346 whole entry): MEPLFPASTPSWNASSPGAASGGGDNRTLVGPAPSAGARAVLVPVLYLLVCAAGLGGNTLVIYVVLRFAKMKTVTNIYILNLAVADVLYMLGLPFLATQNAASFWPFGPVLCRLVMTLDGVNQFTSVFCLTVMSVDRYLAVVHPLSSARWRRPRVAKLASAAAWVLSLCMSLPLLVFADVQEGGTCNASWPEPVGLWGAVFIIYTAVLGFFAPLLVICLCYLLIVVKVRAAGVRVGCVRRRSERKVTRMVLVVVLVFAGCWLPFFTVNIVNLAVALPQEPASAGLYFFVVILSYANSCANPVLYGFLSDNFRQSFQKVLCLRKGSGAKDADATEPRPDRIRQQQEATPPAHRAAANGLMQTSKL

Row | Structure (SMILES) | Ki [nM]
1 | CCOc1cc(CN2CCC(NC(=O)c3cccc(C(N)=O)c3)CC2)ccc1Cl [Example 6] | 126
2 | CCOc1cc(CN2CCC(NC(=O)c3cncc(C)c3)CC2)ccc1Cl [Example 30, N-[1-(4-Chloro-3-ethoxy-benzyl)piperidin-4-yl]-5-methyl-nicotinamide] | 38
3 | CCOC(=O)c1c(OCC)cc(CN2CCC(NC(=O)c3cncc(C)c3)CC2)cc1OCC [Example 35, N-[1-(3,5-Diethoxy-4-ethoxycarbonyl-benzyl)piperidin-4-yl]-5-methyl-nicotinamide] | 19

— patent US7772253B2 (Hoffman-La Roche Inc., priority 2005, dated 2010)
